Assay results reported in ChEMBL document CHEMBL4145577, “Cytotoxic Anthracycline Metabolites from a Recombinant Streptomyces” (J Nat Prod, 2018).

Tests used:
MDA-MB-435 = assay: Cytotoxicity against human MDA-MB-435 cells after 48 hrs by MTT assay; assay type: functional, cell-based; conditions: MDA-MB-435, 48 h
NCI-H460 = assay: Cytotoxicity against human NCI-H460 cells after 48 hrs by MTT assay; assay type: functional, cell-based; conditions: NCI-H460, 48 h
MDA-MB-231 = assay: Cytotoxicity against human MDA-MB-231 cells after 48 hrs by MTT assay; assay type: functional, cell-based; conditions: MDA-MB-231, 48 h
HCT-116 = assay: Cytotoxicity against human HCT116 cells after 48 hrs by MTT assay; assay type: functional, cell-based; conditions: HCT-116, 48 h
HepG2 = assay: Cytotoxicity against human HepG2 cells after 48 hrs by MTT assay; assay type: functional, cell-based; conditions: HepG2, 48 h
MCF-10A = assay: Cytotoxicity against human MCF10A cells after 48 hrs by MTT assay; assay type: cell-based

Structure (SMILES)	IC50 (MDA-MB-435) [µM]	IC50 (NCI-H460) [µM]	IC50 (MDA-MB-231) [µM]	IC50 (HCT-116) [µM]	IC50 (HepG2) [µM]	IC50 (MCF-10A) [µM]
CC[C@@]1(O)C[C@H](O)c2c(O)c3c(c(O)c2[C@H]1C(=O)OC)C(=O)c1cccc(O)c1C3=O	9.2	10	13.2	9.6	13.5	7.1
CC[C@@]1(O)C[C@H](O[C@H]2CC[C@H](O[C@H]3C[C@H](O)[C@H](O[C@H]4CC[C@H](O)[C@H](C)O4)[C@H](C)O3)[C@H](C)O2)c2c(O)c3c(c(O)c2[C@H]1O)C(=O)c1cccc(O)c1C3=O	3.1	1.6	24.5	6.1	5.7	6.7
CC[C@@]1(O)C[C@H](O[C@H]2C[C@H](O)[C@H](O[C@H]3C[C@H](O)[C@H](O)[C@H](C)O3)[C@H](C)O2)c2c(O)c3c(c(O)c2[C@H]1O)C(=O)c1cccc(O)c1C3=O	–	0.6	10.2	13.2	2	2.5
CC[C@@]1(O)C[C@H](O[C@H]2CC[C@H](O[C@H]3CC[C@H](O[C@H]4CC[C@H](O)[C@H](C)O4)[C@H](C)O3)[C@H](C)O2)c2c(O)c3c(c(O)c2[C@H]1C(=O)OC)C(=O)c1cccc(O)c1C3=O	2.7	10	4.5	0.2	1.7	1.4
CC[C@]1(O)Cc2c(O)c3c(c(O)c2[C@@H](O[C@H]2C[C@H](O)[C@H](O[C@H]4C[C@H](O)[C@H](O[C@H]5CC[C@H](O)[C@H](C)O5)[C@H](C)O4)[C@H](C)O2)C1)C(=O)c1c(O)cccc1C3=O	6.2	0.9	> 50	3.1	11.3	16.9
CC[C@@]1(O)C[C@H](O[C@H]2C[C@H](O)[C@H](O[C@H]3C[C@H](O)[C@H](O[C@H]4C[C@H](O)[C@H](O)[C@H](C)O4)[C@H](C)O3)[C@H](C)O2)c2c(O)c3c(c(O)c2[C@H]1O)C(=O)c1cccc(O)c1C3=O	7	4.8	40.2	9.8	8	3.7
CC[C@@]1(O)C[C@H](O[C@H]2C[C@H](O)[C@H](O[C@H]3C[C@H](O)[C@H](O[C@H]4CCC(=O)[C@H](C)O4)[C@H](C)O3)[C@H](C)O2)c2c(O)c3c(c(O)c2[C@H]1O)C(=O)c1cccc(O)c1C3=O	5.6	0.38	5.4	1.4	0.9	2
CC[C@@]1(O)C[C@H](O[C@H]2C[C@H](O)[C@H](O[C@H]3C[C@H](O)[C@H](O[C@H]4CC[C@H](O)[C@H](C)O4)[C@H](C)O3)[C@H](C)O2)c2c(O)c3c(c(O)c2[C@H]1O)C(=O)c1cccc(O)c1C3=O	–	0.7	7.4	5	1.5	3.4
CC[C@@]1(O)C[C@H](O[C@H]2C[C@H](O)[C@H](O[C@H]3CC[C@H](O[C@H]4CC[C@H](O)[C@H](C)O4)[C@H](C)O3)[C@H](C)O2)c2c(O)c3c(c(O)c2[C@H]1O)C(=O)c1cccc(O)c1C3=O	11.7	1.3	10.4	32.8	5.5	5.2
CC[C@@]1(O)C[C@H](O[C@H]2CC[C@H](O[C@H]3C[C@H](O)[C@H](O[C@H]4CC[C@H](O)[C@H](C)O4)[C@H](C)O3)[C@H](C)O2)c2c(O)c3c(c(O)c2[C@H]1C(=O)OC)C(=O)c1cccc(O)c1C3=O	1.9	5.7	9.3	3.6	6.4	4.6
CC[C@@]1(O)C[C@H](O[C@H]2C[C@H](O)[C@H](O[C@H]3CC[C@H](O[C@H]4CC[C@H](OC5CC[C@H](O)[C@H](C)O5)[C@H](C)O4)[C@H](C)O3)[C@H](C)O2)c2c(O)c3c(c(O)c2[C@H]1O)C(=O)c1cccc(O)c1C3=O (stereo partly drawn)	37.9	2.2	10.1	7.2	8.5	5.7
CC[C@@]1(O)C[C@H](O[C@H]2C[C@H](O)[C@H](O[C@H]3CC[C@H](O[C@H]4C[C@H](O)[C@H](O)[C@H](C)O4)[C@H](C)O3)[C@H](C)O2)c2c(O)c3c(c(O)c2[C@H]1O)C(=O)c1cccc(O)c1C3=O	5.9	2.6	19.2	5.8	6.2	10.5
CC[C@]1(O)Cc2c(O)c3c(c(O)c2[C@@H](O[C@H]2C[C@H](O)[C@H](O[C@H]4CC[C@H](O[C@H]5CC[C@H](O)[C@H](C)O5)[C@H](C)O4)[C@H](C)O2)C1)C(=O)c1c(O)cccc1C3=O	4.2	5.4	> 50	0.3	8.6	2.2
CC[C@@]1(O)C[C@H](O[C@H]2CC[C@H](O[C@H]3C[C@H](O)[C@H](O[C@H]4CCC(=O)[C@H](C)O4)[C@H](C)O3)[C@H](C)O2)c2c(O)c3c(c(O)c2[C@H]1O)C(=O)c1cccc(O)c1C3=O	3.9	2.4	23.9	5.4	9.3	10.4
CC[C@@]1(O)CCc2c(O)c3c(c(O)c2[C@H]1O)C(=O)c1cccc(O)c1C3=O	5.7	7.3	10.9	6	13	11.9
COc1cccc2c1C(=O)c1c(O)c3c(c(O)c1C2=O)C[C@@](O)(C(=O)CO)C[C@@H]3O[C@H]1C[C@H](N)[C@@H](O)[C@H](C)O1 [EPIRUBICIN]	0.7	0.02	0.9	0.4	–	0.1
